Experimental data as given in patent US10364270B2, “Eye-care peptide, its composition and method of using the same” (PRO SUNFUN BIOTECH RESEARCH AND DEVELOPMENT CO., LTD., priority 2017, dated 2019).
Peptide text beside a SMILES is read from it.

System: HCEC cells
Test: MTT assay, viability of HCEC cells
Assay type: cell-based, Human
Procedure: Human corneal epithelial cell line, HCEC, was cultured in complete KSF containing keratinocyte-serum free medium, 5 ng/ml human recombinant EGF, 0.05 mg/ml bovine pituitary extract, 0.005 mg/ml insulin and 500 ng/ml hydrocortisone under 5% CO2 at 37° C.
Cells (2×10^4) in 1 ml complete KSF were seeded in 12-well plates with or without Peptide NO. 12. Seventy microliters of 5 mg/ml 3-(4,5-dimethyl-2-thiazolyl)-2,5-diphenyl-2H-tetrazolium bromide solution (MTT; Sigma) was added to each well for the indicated times and incubated at 37° C. for 3 hours, after which 700 μl 10% SDS in 0.01 N HCl was added to dissolve the MTT formazan crystals. The resultant optical density was measured spectrophotometrically at dual wavelengths, 550 and 630 nm.

`CC(C)C[C@H](NC(=O)[C@@H]1CCCN1C(=O)[C@H](CC(N)=O)NC(=O)[C@@H](N)CCCNC(=N)N)C(=O)N[C@@H](CCC(=O)O)C(=O)N[C@@H](CCC(=O)O)C(=O)N[C@H](C(=O)O)[C@@H](C)O` [Peptide NO. 12, ArgAsnProLeuGluGluThr] (H-RNPLEET-OH; N-terminus and C-terminus assumed) was tested, and the “viability of HCEC cells” value (24 hours, 5, 10, 25 and 50 μg/ml, FIG. 3) was “did not significantly affect viability of HCEC cells” and the “viability of HCEC cells” value (48 hours, 5, 10, 25 and 50 μg/ml, FIG. 4) was “did not significantly affect viability of HCEC cells”.
